Here are results for 89 compounds from PubChem BioAssay AID732 (Emory University Molecular Libraries Screening Center, 2007).

This experiment has as its system in vivo angiogenesis, blood vessel count. Nature of the experiment: angiogenesis inhibition in living animals, in vivo study, HTS (AID 732).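 Further: zebrafish embryos dosed at one day post fertilization; 0% = reference inhibitor and 100% = plate mean.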 Conditions: active compounds read low;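 tested at 30 µM in the well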.

“And” between values parts separate entries of the source, which are not always exact repeats. Identical values can stand only once. The source made the active and inactive calls. How the calls were made is not given here.

Regarding `CSc1ccc2c(c1)C(N1CCN(C)CC1)Cc1ccccc1S2` (centres undefined), the vessel count % control was 60.6% (inactive).

For `NC(N)=NC(=O)c1nc(Cl)c(N)nc1N`, the vessel count % control is 117% (inactive).

Take `c1ccc([C@H]2CN3CCSC3=N2)cc1`: the vessel count % control is 98.4% (inactive).

In the case of `CN(C)CCOC(C)(c1ccccc1)c1ccccn1` (centres undefined), the vessel count % control was 95.7% (inactive).

Take `CCCCCCCCCC[Si](C)(C)CCC(=O)NC(Cc1ccc(C)cc1)c1ccccc1` (centres undefined): the vessel count % control is 109% (inactive).

With `Clc1cccc(N2CCNCC2)c1`, the vessel count % control was 101% (inactive).

For `Nc1ccc(CCNc2ncnc3c2ncn3C2OC(CO)C(O)C2O)cc1` (centres undefined), the vessel count % control was 110% (inactive).

As for `NNCCc1ccccc1`, the vessel count % control is 104% (inactive).

Turning to `C[N+](C)(C)CCOC(=O)CCC(=O)OCC[N+](C)(C)C`, the vessel count % control is 94.4% (inactive).

Consider `CN(C)CCOC(c1ccccc1)c1ccccc1`, for which the vessel count % control is 86.5% (inactive).

For `O=C1Cc2c([nH]c3ccc(Br)cc23)-c2ccccc2N1`, the vessel count % control is 101% (inactive).

Consider `O=C(O)[C@H]1NCCC[C@H]1C(=O)O`, for which the vessel count % control is 121% (inactive).

Regarding `OCCN1CCN(CCCN2c3ccccc3Sc3ccc(Cl)cc32)CC1`, the vessel count % control was 99.2% (inactive).

As to `CN=C(N)NCCC[C@H](N)C(=O)O`, the vessel count % control was 93% (inactive).

For the compound `N[C@@H](CCCC(=O)O)C(=O)O`, the vessel count % control was 130% (inactive).

`O=P1(N(CCCl)CCCl)NCCCO1` (centres undefined): the vessel count % control is 105% (inactive).

For `N#Cc1cc2nc(O)c(O)nc2cc1[N+](=O)[O-]`, the vessel count % control is 94.9% (inactive).

For `O=C(O)CCCCCCCC(=O)O`, the vessel count % control was 95.3% (inactive).

Take `CN[C@H](CC(=O)O)C(=O)O`: the vessel count % control is 86.7% (inactive).

`CCSC(=N)N`: the vessel count % control is 62.2% (inactive).

Turning to `CC12C(=O)OC(=O)C1(C)C1CCC2O1` (centres undefined), the vessel count % control was 0% (inactive).

Take `O=c1[nH]ccc2c(O)cccc12`: the vessel count % control is 0% (inactive).

On to `CN1CC[C@@]2(C)c3cc(O)ccc3N(C)C12` (some centres undefined), for which the vessel count % control is 95.1% (inactive).

As for `CC(C)CN(C)c1nc(N)c(C(=O)N=C(N)N)nc1Cl`, the vessel count % control is 101% (inactive).

In the case of `CC(C)NC[C@H](O)COc1cccc2ccccc12`, the vessel count % control is 94.9% (inactive).

With `NC(=O)c1ccc(OCC(O)CN2CC=C(c3ccc(F)cc3)CC2)cc1` (centres undefined), the vessel count % control is 79.7% (inactive).

For the compound `CC(C)Cc1ccc(C(C)C(=O)O)cc1` (centres undefined), the vessel count % control is 138% (inactive).

Turning to `O=C(O)c1ccccc1Nc1ccccc1`, the vessel count % control was 109% (inactive).

For `CN1CCC(=C2c3ccccc3C=Cc3ccccc32)CC1`, the vessel count % control is 0% (inactive).

As for `O=C1C(c2c(O)[nH]c3c(Cl)cc(Cl)cc23)=Nc2ccc(Br)cc21`, the vessel count % control is 123% (inactive).

Turning to `CO/N=C(\C(=O)N[C@@H]1C(=O)N2C(C(=O)O)=C(CSc3nc(=O)c(O)nn3C)CSC12)c1csc(N)n1` (some centres undefined), the vessel count % control is 117% (inactive).

Take `CC(N)Cc1c[nH]c2ccc(OCc3cccs3)cc12` (centres undefined): the vessel count % control is 107% (inactive).

On to `O=C1C(c2c(O)[nH]c3ccc(Cl)cc23)=Nc2ccccc21`, for which the vessel count % control was 87.6% (inactive).

In the case of `CN1C2CCC1CC(OC(=O)C(CO)c1ccccc1)C2` (centres undefined), the vessel count % control is 120% (inactive) and 116% (inactive).

As to `Nc1nc(Cl)nc2c1ncn2[C@@H]1O[C@H](COP(=O)(O)OP(=O)(O)OP(=O)(O)O)[C@H](O)C1O` (some centres undefined), the vessel count % control is 107% (inactive).

As for `FC(F)(F)c1ccccc1-n1ccnc1`, the vessel count % control was 93.4% (inactive).

`C[N+]1(C)C2CCC1CC(OC(=O)c1c[nH]c3ccccc13)C2` (centres undefined): the vessel count % control is 99.8% (inactive).

As to `Clc1ccc(Cn2c(CN3CCCC3)nc3ccccc32)cc1`, the vessel count % control is 81.8% (inactive).

Take `CC(=O)SC1CC2=CC(=O)CC[C@]2(C)C2CC[C@@]3(C)C(CC[C@@]34CCC(=O)O4)C12` (some centres undefined): the vessel count % control was 85.3% (inactive).

As for `Cc1nc2c(OCc3ccccc3)cccn2c1CC#N`, the vessel count % control is 120% (inactive).

For `O=c1ccc2ccc(O)c(O)c2o1`, the vessel count % control was 121% (inactive).

`O=[N+]([O-])c1ccc(-c2nc(-c3ccc(F)cc3)c(-c3ccncc3)[nH]2)cc1`: the vessel count % control is 124% (inactive).

Take `O=c1n(CCCN2CCN(c3cccc(Cl)c3)CC2)nc2ccccn12`: the vessel count % control was 88% (inactive).

Turning to `CN(C)CCC=C1c2ccccc2CCc2ccccc21`, the vessel count % control was 91.2% (inactive).

Consider `C[C@]12CCC(=O)C=C1CC[C@@H]1[C@@H]2C(=O)C[C@@]2(C)[C@H]1CC[C@]2(O)C(=O)CO`, for which the vessel count % control was 126% (inactive).

For `CCCC1O[C@@H]2C[C@H]3[C@@H]4CCC5=CC(=O)C=C[C@]5(C)[C@H]4[C@@H](O)C[C@]3(C)[C@]2(C(=O)CO)O1` (some centres undefined), the vessel count % control is 120% (inactive).

For the compound `CSC(N)=NCCC[C@H](N)C(=O)O`, the vessel count % control was 107% (inactive).

With `Cc1nc2sccn2c(=O)c1CCN1CCC(=C(c2ccc(F)cc2)c2ccc(F)cc2)CC1`, the vessel count % control was 68.8% (inactive).

Regarding `Nc1ncnc2c1ncn2[C@@H]1O[C@H](COP(=O)(O)CP(=O)(O)OP(=O)(O)O)[C@H](O)C1O` (some centres undefined), the vessel count % control is 95.1% (inactive).

With `Cc1[nH]c(=O)c(C#N)cc1-c1ccncc1`, the vessel count % control is 84.9% (inactive).

`N.N.O=C(O)C1(C(=O)O)CCC1.[Pt+2]`: the vessel count % control was 105% (inactive).

Consider `CCCN(CCC)C1CCc2ccc(O)cc2C1` (centres undefined), for which the vessel count % control was 87.6% (inactive).

`CCCCC/C=C\C/C=C\C/C=C\C/C=C\CCCC(=O)NCC(=O)O`: the vessel count % control is 83.7% (inactive).

Regarding `CC1=NN=C(c2ccc(N)cc2)c2cc3c(cc2C1)OCO3`, the vessel count % control is 96.1% (inactive).

For `Oc1[nH]c2ccccc2c1C1=Nc2ccc(Br)cc2/C1=N\OCCBr`, the vessel count % control is 79.9% (inactive).

Consider `CCNC(=O)N1CCN(CCCC(c2ccc(F)cc2)c2ccc(F)cc2)CC1`, for which the vessel count % control is 83.9% (inactive).

For the compound `CS(=O)(=O)Nc1ccc([N+](=O)[O-])cc1Oc1ccccc1`, the vessel count % control is 80.2% (inactive).

On to `COc1cc2nc(N3CCN(C(=O)C4CCCO4)CC3)nc(N)c2cc1OC` (centres undefined), for which the vessel count % control was 83.3% (inactive).

As for `N[C@@H](CCl)C(=O)O`, the vessel count % control is 101% (inactive).

`CCCC(C(=O)OCCN(CC)CC)(c1ccccc1)c1ccccc1`: the vessel count % control was 98% (inactive).

As to `COc1cc(=O)n(C)c2c(OCC(O)C(C)(C)O)cccc12` (centres undefined), the vessel count % control was 75.4% (inactive).

Regarding `Nc1nc(N)c2nc(-c3ccccc3)c(N)nc2n1`, the vessel count % control is 109% (inactive).

Turning to `CN1C(C)(C)CCCC1(C)C`, the vessel count % control was 106% (inactive).

As for `Oc1ccc(C2CNCCc3c2cc(O)c(O)c3Cl)cc1` (centres undefined), the vessel count % control is 117% (inactive).

Take `COC(=O)[C@H]1[C@H]2C[C@@H]3c4[nH]c5cc(OC)ccc5c4CCN3C[C@H]2C[C@@H](OC(=O)c2cc(OC)c(OC)c(OC)c2)[C@@H]1OC`: the vessel count % control was 75.8% (inactive).

In the case of `OC(CCN1CCCCC1)(c1ccccc1)C1CCCCC1` (centres undefined), the vessel count % control was 98.5% (inactive).

As for `O=C(c1ccccc1)c1ccc2n1CCC2C(=O)O` (centres undefined), the vessel count % control is 79.7% (inactive).

As for `COC(=O)c1c(C)[nH]c(C)c1C(=O)c1ccccc1Cc1ccccc1`, the vessel count % control is 102% (inactive).

`O=C1C(c2c(O)[nH]c3ccc([N+](=O)[O-])cc23)=Nc2ccc(Br)cc21`: the vessel count % control is 101% (inactive).

As for `CNCCCN1c2ccccc2CCc2ccccc21`, the vessel count % control is 82.9% (inactive).

For `COc1ccccc1OCC(O)CN1CCN(CC(=O)Nc2c(C)cccc2C)CC1` (centres undefined), the vessel count % control was 97.9% (inactive).

`CC(=O)[C@H]1CC[C@H]2[C@@H]3CC[C@H]4C[C@H](O)CC[C@]4(C)[C@H]3C(=O)C[C@]12C`: the vessel count % control is 111% (inactive).

`C[C@H](Cc1ccccc1)Nc1ncnc2c1ncn2[C@@H]1O[C@H](CO)[C@H](O)C1O` (some centres undefined): the vessel count % control was 99.9% (inactive).

Consider `CC(C)C[C@H](NC(=O)C1OC1C(=O)O)C(=O)NCCCCN=C(N)N` (some centres undefined), for which the vessel count % control is 108% (inactive).

Consider `Nc1nc(OCc2ccccc2)c2[nH]cnc2n1`, for which the vessel count % control is 91% (inactive).

Turning to `Cc1ccccc1CNc1ncnc2c1ncn2C1OC(CO)C(O)C1O` (centres undefined), the vessel count % control was 93.1% (inactive).

`NC(=O)NO`: the vessel count % control was 97.8% (inactive).

For `NS(=O)(=O)c1cc2c(cc1Cl)NC(C1CC3C=CC1C3)NS2(=O)=O` (centres undefined), the vessel count % control is 107% (inactive).

`O=C(O)c1cc(=O)c2ccc(Cl)cc2[nH]1`: the vessel count % control was 110% (inactive).

For the compound `OC[C@H]1O[C@@H](n2cnc3c(N[C@H]4CC5CCC4C5)ncnc32)[C@H](O)[C@@H]1O` (some centres undefined), the vessel count % control was 77.1% (inactive).

`N#CC(=C(\N)Sc1ccccc1N)/C(C#N)=C(/N)Sc1ccccc1N`: the vessel count % control is 94.5% (inactive).

For `OC1CCCCC1N1CCC(c2ccccc2)CC1` (centres undefined), the vessel count % control is 99% (inactive).

With `N[C@@]1(C(=O)O)CC[C@@H](C(=O)O)C1`, the vessel count % control was 102% (inactive).

For the compound `Cc1cc(C)c(/C=C2\C(=O)Nc3ccccc32)[nH]1`, the vessel count % control was 0% (inactive).

For the compound `Oc1[nH]c2c(Cl)cc(Cl)cc2c1C1=Nc2ccc(Br)cc2/C1=N\OCCN1CCNCC1`, the vessel count % control is 90.9% (inactive).

On to `CC(N)(Cc1ccc(O)cc1)C(=O)O` (centres undefined), for which the vessel count % control was 105% (inactive).

Regarding `Nc1c2c(nc3ccccc13)CCCC2`, the vessel count % control is 91.9% (inactive).

For `O=C1O/C(=C/Br)CCC1c1cccc2ccccc12` (centres undefined), the vessel count % control was 87.4% (inactive).

Regarding `Cc1cccc(C)c1OCC(C)N` (centres undefined), the vessel count % control is 99.4% (inactive).
